Results reported in US9873680B2 (Gilead Sciences, Inc., priority 2014, dated 2018).
Counter-ions that a name gives are not always drawn.

Assays:
[1] = test system: HIV-IIIb; experiment: Test A: Antiviral Assay in MT4 Cells; type: cell-based, HIV-1; conditions: Human immunodeficiency virus 1, MT4, 120 h; 0.2 μM drug concentration; MT-4 cells infected with HIV-IIIb, 5 days; values normalized to 100%; average over time; read-out: % inhibition at 0.2 μM (percent inhibition of virus-induced cell killing)
How it was run: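 MT-4 cells were preinfected with HIV-IIIb […]. Cell viability, as protection from viral cytopathic effect, was read by CellTiter-Glo chemiluminescence.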

[2] = Test B: Cytotoxicity Assay; type: cell-based; conditions: human, uninfected MT-4 cells, CellTiter-Glo
Experimental: Test B: Cytotoxicity Assay Compound cytotoxicity and the corresponding CC50 values was determined using the same protocol as described in the antiviral assay (Test A) except that uninfected cells were used.

Row | Compound | inhibition at 0.2 µM [1] [%] | CC50 at 5 days [2] [µM]
1 | Cn1nc(NS(C)(=O)=O)c2c(Cl)ccc(-c3ccc(C#CC4CCCN4C(=O)CO)nc3[C@H](Cc3cc(F)cc(F)c3)NC(=O)Cn3nc(C(F)(F)F)c4c3C(F)(F)[C@@H]3C[C@H]43)c21 (stereo partly drawn) [Compound 66, N-((1S)-1-(3-(4-chloro-1-methyl-3-(methylsulfonamido)-1H-indazol-7-yl)-6-((1-(2-hydroxyacetyl)pyrrolidin-2-yl)ethynyl)pyridin-2-yl)-2-(3,5-difluorophenyl)ethyl)-2-((3bS,4aR)-5,5-difluoro-3-(trifluoromethyl)-3b,4,4a,5-tetrahydro-1H-cyclopropa[3,4]cyclopenta[1,2-c]pyrazol-1-yl)acetamide] | 92 | 11.6
2 | COc1ccc(C#Cc2ccc(-c3ccc4c(c3)C(=O)NC4)c([C@H](Cc3cc(F)cc(F)c3)NC(=O)Cn3nc(C(F)(F)F)c4c3C(F)(F)[C@@H]3C[C@H]43)n2)cn1 [Compound 10C, 2-((3bS,4aR)-5,5-difluoro-3-(trifluoromethyl)-3b,4,4a,5-tetrahydro-1H-cyclopropa[3,4]cyclopenta[1,2-c]pyrazol-1-yl)-N—((S)-2-(3,5-difluorophenyl)-1-(6-((6-methoxypyridin-3-yl)ethynyl)-3-(3-oxoisoindolin-5-yl)pyridin-2-yl)ethyl)acetamide] | 21 | > 51.9
3 | Cn1nc(NS(C)(=O)=O)c2cccc(-c3ccc(C#CC4(C)COC4)nc3[C@H](Cc3cc(F)cc(F)c3)NC(=O)Cn3nc(C(F)(F)F)c4c3C(F)(F)[C@@H]3C[C@H]43)c21 [Compound 29, 2-((3bS,4aR)-5,5-difluoro-3-(trifluoromethyl)-3b,4,4a,5-tetrahydro-1H-cyclopropa[3,4]cyclopenta[1,2-c]pyrazol-1-yl)-N—((S)-2-(3,5-difluorophenyl)-1-(3-(1-methyl-3-(methylsulfonamido)-1H-indazol-7-yl)-6-((3-methyloxetan-3-yl)ethynyl)pyridin-2-yl)ethyl)acetamide] | 100 | 12.4
4 | CN1CCN(CC#Cc2ccc(-c3ccc(Cl)c4c(NS(C)(=O)=O)nn(C)c34)c([C@H](Cc3cc(F)cc(F)c3)NC(=O)Cn3nc(C(F)(F)F)c4c3C(F)(F)[C@@H]3C[C@H]43)n2)CC1 [Compound 47, N—((S)-1-(3-(4-chloro-1-methyl-3-(methylsulfonamido)-1H-indazol-7-yl)-6-(3-(4-methylpiperazin-1-yl)prop-1-yn-1-yl)pyridin-2-yl)-2-(3,5-difluorophenyl)ethyl)-2-((3bS,4aR)-5,5-difluoro-3-(trifluoromethyl)-3b,4,4a,5-tetrahydro-1H-cyclopropa[3,4]cyclopenta[1,2-c]pyrazol-1-yl)acetamide] | 94 | 7.97
5 | Cn1nc(NS(C)(=O)=O)c2c(Cl)ccc(-c3ccc(C#C[C@]4(C)CNCCO4)nc3[C@H](Cc3cc(F)cc(F)c3)NC(=O)Cn3nc(C(F)F)c4c3C(F)(F)[C@@H]3C[C@H]43)c21 [Compound 84, N—((S)-1-(3-(4-chloro-1-methyl-3-(methylsulfonamido)-1H-indazol-7-yl)-6-(((R)-2-methylmorpholin-2-yl)ethynyl)pyridin-2-yl)-2-(3,5-difluorophenyl)ethyl)-2-((3bS,4aR)-3-(difluoromethyl)-5,5-difluoro-3b,4,4a,5-tetrahydro-1H-cyclopropa[3,4]cyclopenta[1,2-c]pyrazol-1-yl)acetamide] | 88 | 6.9
6 | Cn1nc(NS(C)(=O)=O)c2c(Cl)ccc(-c3ccc(C#C[C@]4(C)CNCCO4)nc3[C@H](Cc3cc(F)cc(F)c3)NC(=O)Cn3nc(C#N)c4c3C(F)(F)[C@@H]3C[C@H]43)c21 [Compound 88L, N—((S)-1-(3-(4-chloro-1-methyl-3-(methylsulfonamido)-1H-indazol-7-yl)-6-(((R)-2-methylmorpholin-2-yl)ethynyl)pyridin-2-yl)-2-(3,5-difluorophenyl)ethyl)-2-((3bS,4aR)-3-cyano-5,5-difluoro-3b,4,4a,5-tetrahydro-1H-cyclopropa[3,4]cyclopenta[1,2-c]pyrazol-1-yl)acetamide] | 97 | 5.79
7 | Cn1nc(NS(C)(=O)=O)c2c(Cl)ccc(-c3ccc(C#CC4(C)CNCCO4)nc3[C@H](Cc3cc(F)cc(F)c3)NC(=O)Cn3nc(C(F)(F)F)c4c3C(F)(F)[C@@H]3C[C@H]43)c21 (stereo partly drawn) [Compound 76, N-((1S)-1-(3-(4-chloro-1-methyl-3-(methylsulfonamido)-1H-indazol-7-yl)-6-((2-methylmorpholin-2-yl)ethynyl)pyridin-2-yl)-2-(3,5-difluorophenyl)ethyl)-2-((3bS,4aR)-5,5-difluoro-3-(trifluoromethyl)-3b,4,4a,5-tetrahydro-1H-cyclopropa[3,4]cyclopenta[1,2-c]pyrazol-1-yl)acetamide] | 93 | 6.67
8 | O=C(Cn1nc(C(F)F)c2c1C(F)(F)CCC2(F)F)N[C@@H](Cc1cc(F)cc(F)c1)c1nc(C#Cc2cncnc2)ccc1-c1ccc2c(c1)C(=O)NC2 [Compound 1J, (S)-2-(3-(difluoromethyl)-4,4,7,7-tetrafluoro-4,5,6,7-tetrahydro-1H-indazol-1-yl)-N-(2-(3,5-difluorophenyl)-1-(3-(3-oxoisoindolin-5-yl)-6-(pyrimidin-5-ylethynyl)pyridin-2-yl)ethyl)acetamidehydrochloride] | 81 | > 53.2
9 | Cn1nc(NS(C)(=O)=O)c2cccc(-c3ccc(C#CC4CCOCC4)nc3[C@H](Cc3cc(F)cc(F)c3)NC(=O)Cn3nc(C(F)(F)F)c4c3C(F)(F)[C@@H]3C[C@H]43)c21 [Compound 28B, 2-((3bS,4aR)-5,5-difluoro-3-(trifluoromethyl)-3b,4,4a,5-tetrahydro-1H-cyclopropa[3,4]cyclopenta[1,2-c]pyrazol-1-yl)-N—((S)-2-(3,5-difluorophenyl)-1-(3-(1-methyl-3-(methylsulfonamido)-1H-indazol-7-yl)-6-((tetrahydro-2H-pyran-4-yl)ethynyl)pyridin-2-yl)ethyl)acetamide] | 92 | 6.07
10 | Cn1ccnc1C(C)(C)C#Cc1ccc(-c2ccc(Cl)c3c(NS(C)(=O)=O)nn(C)c23)c([C@H](Cc2cc(F)cc(F)c2)NC(=O)Cn2nc(C(F)F)c3c2C(F)(F)[C@@H]2C[C@H]32)n1 [Compound 92B, N—((S)-1-(3-(4-chloro-1-methyl-3-(methylsulfonamido)-1H-indazol-7-yl)-6-(3-methyl-3-(1-methyl-1H-imidazol-2-yl)but-1-yn-1-yl)pyridin-2-yl)-2-(3,5-difluorophenyl)ethyl)-2-((3bS,4aR)-3-(difluoromethyl)-5,5-difluoro-3b,4,4a,5-tetrahydro-1H-cyclopropa[3,4]cyclopenta[1,2-c]pyrazol-1-yl)acetamide] | 100 | 25.9
11 | Cn1nc(NS(C)(=O)=O)c2c(Cl)ccc(-c3ccc(C#CC4(CO)CCCC4)nc3[C@H](Cc3cc(F)cc(F)c3)NC(=O)Cn3nc(C(F)(F)F)c4c3C(F)(F)[C@@H]3C[C@H]43)c21 [Compound 45B, N—((S)-1-(3-(4-chloro-1-methyl-3-(methylsulfonamido)-1H-indazol-7-yl)-6-((1-(hydroxymethyl)cyclopentyl)ethynyl)pyridin-2-yl)-2-(3,5-difluorophenyl)ethyl)-2-((3bS,4aR)-5,5-difluoro-3-(trifluoromethyl)-3b,4,4a,5-tetrahydro-1H-cyclopropa[3,4]cyclopenta[1,2-c]pyrazol-1-yl)acetamide] | 93 | 7.35
